# In BindingDB's records for doi:10.1021/jm060978s (Daiichi Asubio Medical Research Laboratories, 2006):
# pIC50: −log10 of the molar value.
# Key:
# Test in all cases: Enzyme Inhibition Assay
# [1] = molecular target: Coagulation factor XI (Homo sapiens, UniProt P03951); settings: pH 7.4; 30 °C
# [2] = molecular target: Prothrombin (Homo sapiens, UniProt P00734)
# [3] = molecular target: Coagulation factor X (Homo sapiens, UniProt P00742)
# Coagulation factor X, sequence (P00742 41-179 limits assumed): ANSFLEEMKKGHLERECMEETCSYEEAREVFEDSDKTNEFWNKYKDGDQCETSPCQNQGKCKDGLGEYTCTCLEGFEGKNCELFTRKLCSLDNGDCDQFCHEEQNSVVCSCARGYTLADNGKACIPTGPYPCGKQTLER
# Coagulation factor X, sequence (P00742 235-488 limits assumed): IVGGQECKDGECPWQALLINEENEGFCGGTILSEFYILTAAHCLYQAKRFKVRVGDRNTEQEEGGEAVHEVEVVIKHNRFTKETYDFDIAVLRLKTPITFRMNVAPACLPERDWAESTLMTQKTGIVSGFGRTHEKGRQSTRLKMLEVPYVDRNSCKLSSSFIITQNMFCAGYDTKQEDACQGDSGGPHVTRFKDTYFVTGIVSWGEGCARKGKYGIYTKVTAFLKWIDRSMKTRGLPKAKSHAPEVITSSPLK
# Coagulation factor XI, sequence (P03951 19-387 limits assumed): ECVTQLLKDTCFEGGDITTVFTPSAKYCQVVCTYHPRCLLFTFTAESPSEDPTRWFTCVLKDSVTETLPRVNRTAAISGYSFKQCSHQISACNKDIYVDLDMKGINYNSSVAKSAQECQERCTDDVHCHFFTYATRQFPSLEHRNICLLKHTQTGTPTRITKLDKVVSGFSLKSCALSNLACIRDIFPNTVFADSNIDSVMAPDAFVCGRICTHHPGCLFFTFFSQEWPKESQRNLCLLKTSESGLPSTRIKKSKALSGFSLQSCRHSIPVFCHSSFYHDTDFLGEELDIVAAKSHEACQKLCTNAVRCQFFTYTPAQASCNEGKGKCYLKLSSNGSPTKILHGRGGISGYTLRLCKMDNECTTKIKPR
# Coagulation factor XI, sequence (P03951 388-625 limits assumed): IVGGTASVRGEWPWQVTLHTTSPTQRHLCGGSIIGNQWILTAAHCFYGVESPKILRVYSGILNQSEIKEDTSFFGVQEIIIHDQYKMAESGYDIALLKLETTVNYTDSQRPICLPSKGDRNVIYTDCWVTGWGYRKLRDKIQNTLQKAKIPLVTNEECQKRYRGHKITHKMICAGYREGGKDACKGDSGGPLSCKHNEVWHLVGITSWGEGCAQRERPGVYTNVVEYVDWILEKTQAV
pIC50 [1],pIC50 [2],pIC50 [3],SMILES
6.80,5.37,,"CC(C)[C@H](NC(=O)[C@H](Cc1ccccc1)NC(=O)NCc1ccc(F)cc1)C(=O)N[C@@H](CCCN=C(N)N)C(=O)c1nccs1 [(2S)-N-[(2S)-5-carbamimidamido-1-oxo-1-(1,3-thiazol-2-yl)pentan-2-yl]-2-[(2S)-2-({[(4-fluorophenyl)methyl]carbamoyl}amino)-3-phenylpropanamido]-3-methylbutanamide]"
5.64,,,"CC(C)[C@H](NC(=O)[C@H](Cc1ccccc1)NS(=O)(=O)c1ccc(Cl)c(Cl)c1)C(=O)N[C@@H](CCCN=C(N)N)C(=O)c1nccs1 [(2S)-N-[(2S)-5-carbamimidamido-1-oxo-1-(1,3-thiazol-2-yl)pentan-2-yl]-2-[(2S)-2-[(3,4-dichlorobenzene)sulfonamido]-3-phenylpropanamido]-3-methylbutanamide]"
5.66,,,"CC(C)[C@H](NC(=O)[C@H](Cc1ccccc1)NC(=O)c1ccco1)C(=O)N[C@@H](CCCN=C(N)N)C(=O)c1nccs1 [(2S)-N-[(2S)-5-carbamimidamido-1-oxo-1-(1,3-thiazol-2-yl)pentan-2-yl]-2-[(2S)-2-(furan-2-ylformamido)-3-phenylpropanamido]-3-methylbutanamide]"
6.59,5.68,4.84,"CCOC(=O)C(Cc1ccccc1)NC(=O)N[C@@H](Cc1ccccc1)C(=O)N[C@H](C(=O)N[C@@H](CCCN=C(N)N)C(=O)c1nccs1)C(C)C (stereo partly drawn) [ethyl 2-({[(1S)-1-{[(1S)-1-{[(2S)-5-carbamimidamido-1-oxo-1-(1,3-thiazol-2-yl)pentan-2-yl]carbamoyl}-2-methylpropyl]carbamoyl}-2-phenylethyl]carbamoyl}amino)-3-phenylpropanoate]"
5.59,,,"CC(C)[C@H](NC(=O)[C@H](Cc1ccccc1)NC(=O)Cc1cccs1)C(=O)N[C@@H](CCCN=C(N)N)C(=O)c1nccs1 [(2S)-N-[(2S)-5-carbamimidamido-1-oxo-1-(1,3-thiazol-2-yl)pentan-2-yl]-3-methyl-2-[(2S)-3-phenyl-2-[1-(thiophen-2-yl)acetamido]propanamido]butanamide]"
5.72,6.03,< 4.70,"CC(C)[C@H](NC(=O)[C@H](Cc1ccccc1)NC(=O)Nc1ccccc1)C(=O)N[C@@H](CCCN=C(N)N)C(=O)c1nccs1 [(2S)-N-[(2S)-5-carbamimidamido-1-oxo-1-(1,3-thiazol-2-yl)pentan-2-yl]-3-methyl-2-[(2S)-3-phenyl-2-[(phenylcarbamoyl)amino]propanamido]butanamide]"
6.39,5.68,4.81,"CCOC(=O)C(CC(C)C)NC(=O)N[C@@H](Cc1ccccc1)C(=O)N[C@H](C(=O)N[C@@H](CCCN=C(N)N)C(=O)c1nccs1)C(C)C (stereo partly drawn) [ethyl 2-({[(1S)-1-{[(1S)-1-{[(2S)-5-carbamimidamido-1-oxo-1-(1,3-thiazol-2-yl)pentan-2-yl]carbamoyl}-2-methylpropyl]carbamoyl}-2-phenylethyl]carbamoyl}amino)-4-methylpentanoate]"

SMILES,pIC50 [1],pIC50 [2],pIC50 [3]
"CC(C)[C@H](NC(=O)[C@H](Cc1ccccc1)NC(=O)NCc1ccc(Cl)c(Cl)c1)C(=O)N[C@@H](CCCN=C(N)N)C(=O)c1nccs1 [(2S)-N-[(2S)-5-carbamimidamido-1-oxo-1-(1,3-thiazol-2-yl)pentan-2-yl]-2-[(2S)-2-({[(3,4-dichlorophenyl)methyl]carbamoyl}amino)-3-phenylpropanamido]-3-methylbutanamide]",7.03,5.17,4.85
